What is called IC50 is the concentration that gives 50% inhibition.

The structures appear in SMILES notation.

T1 sequence (Q00987 17-125): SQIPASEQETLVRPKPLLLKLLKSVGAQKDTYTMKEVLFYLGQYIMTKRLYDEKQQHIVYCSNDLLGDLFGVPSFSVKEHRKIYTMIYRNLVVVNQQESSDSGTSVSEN

This test addresses T1, HDM2 (Homo sapiens, UniProt Q00987).
T1 construct: Thioredoxin (N); made in house; host or cells: E. coli strain BL21(DE3)Rosetta
The test can be described thus: FRET assay (HDM2 inhibition; method not described in this part). It is filed as binding. The note with it: Table 1.
In the case of `Cc1cnc(-c2nc3nc(C(=O)O)nc(N[C@H](C)C4CCC4)c3n2Cc2ccc(C(F)(F)F)c(F)c2)cc1C(C)C` [Example 1.92, 6-{[(1R)-1-cyclobutylethyl]amino}-7-[3-fluoro-4-(trifluoromethyl)benzyl]-8-[5-methyl-4-(1-methylethyl)pyridin-2-yl]-7H-purine-2-carboxylic acid], the concentration for half-maximal inhibition (IC50) turned out to be 15.9 nM.
As for `Cc1cc(C(C)C)cc(-c2nc3nc(C(=O)O)nc(N[C@H](C)C4CCC4)c3n2Cc2ccc(C(F)(F)F)cc2)n1` [Example 1.93, 6-{[(1R)-1-cyclobutylethyl]amino}-8-[6-methyl-4-(1-methylethyl)pyridin-2-yl]-7-[4-(trifluoromethyl)benzyl]-7H-purine-2-carboxylic acid], the figure is 19.1 nM.
As for `Cc1cc(-c2nc3nc(C(=O)O)nc(N[C@H](C)C4CCC4)c3n2Cc2ccc(C(F)(F)F)cc2)n(C)n1` [Example 1.94, 6-{[(1R)-1-cyclobutylethyl]amino}-8-(1,3-dimethyl-1H-pyrazol-5-yl)-7-[4-(trifluoromethyl)benzyl]-7H-purine-2-carboxylic acid], the figure is 173 nM.
As for `Cc1c(-c2nc3nc(C(=O)O)nc(N[C@H](C)C4CCC4)c3n2Cc2ccc(C(F)(F)F)cc2)cnn1C` [Example 1.95, 6-{[(1R)-1-cyclobutylethyl]amino}-8-(1,5-dimethyl-1H-pyrazol-4-yl)-7-[4-(trifluoromethyl)benzyl]-7H-purine-2-carboxylic acid], the figure is 138 nM.
In turn, `C[C@@H](Nc1nc(C(=O)O)nc2nc(-c3ccccc3)n(Cc3ccc(C(F)(F)F)cc3)c12)C1CC1` [Example 1.96, 6-{[(1R)-1-cyclopropylethyl]amino} -8-phenyl-7-[4-(trifluoromethyl)benzyl]-7H-purine-2-carboxylic acid] had an IC50 of 371 nM.
As for `C[C@@H](Nc1nc(C(=O)O)nc2nc(-c3ccc(N4CCOCC4)cc3)n(Cc3ccc(C(F)(F)F)cc3)c12)C1CC1` [Example 1.97, 6-{[(1R)-1-cyclopropylethyl]amino} -8-(4-morpholin-4-ylphenyl)-7-[4-(trifluoromethyl)benzyl]-7H-purine-2-carboxylic acid], the figure is 1540 nM; as for `CC(C)Oc1cccc(-c2nc3nc(C(=O)O)nc(N[C@H](C)C4CC4)c3n2Cc2ccc(C(F)(F)F)cc2)c1` [Example 1.98, 6-{[(1R)-1-cyclopropylethyl]amino} -8-[3-(1-methylethoxy)phenyl]-7-[4-(trifluoromethyl)benzyl]-7H-purine-2-carboxylic acid], 316 nM.
To `Cc1ccc(C)c(-c2nc3nc(C(=O)O)nc(N[C@H](C)C4CCC4)c3n2Cc2ccc(C(F)(F)F)cc2)c1` [Example 1.99, 6-{[(1R)-1-cyclobutylethyl]amino}-8-(2,5-dimethylphenyl)-7-[4-(trifluoromethyl)benzyl]-7H-purine-2-carboxylic acid] belongs 14.9 nM.
To `C[C@@H](Nc1nc(C(=O)O)nc2nc(-c3ccc(OC(F)F)cc3)n(Cc3ccc(C(F)(F)F)cc3)c12)C1CCC1` [Example 1.100, 6-{[(1R)-1-cyclobutylethyl]amino}-8-[4-(difluoromethoxy)phenyl]-7-[4-(trifluoromethyl)benzyl]-7H-purine-2-carboxylic acid] belongs 51.8 nM; to `CC(O)c1ccc(-c2nc3nc(C(=O)O)nc(N[C@H](C)C4CCC4)c3n2Cc2ccc(C(F)(F)F)cc2)cc1` (stereo partly drawn) [Example 1.101, 6-{[(1R)-1-cyclobutylethyl]amino}-8-[4-(1-hydroxyethyl)phenyl]-7-[4-(trifluoromethyl)benzyl]-7H-purine-2-carboxylic acid], 34.2 nM; to `Cc1ccc(-c2nc3nc(C(=O)O)nc(N[C@H](C)C4CCC4)c3n2Cc2ccc(C(F)(F)F)cc2)cc1F` [Example 1.102, 6-{[(1R)-1-cyclobutylethyl]amino}-8-(3-fluoro-4-methylphenyl)-7-[4-(trifluoromethyl)benzyl]-7H-purine-2-carboxylic acid], 20.3 nM.
The molecule `Cc1ccc(F)cc1-c1nc2nc(C(=O)O)nc(N[C@H](C)C3CCC3)c2n1Cc1ccc(C(F)(F)F)cc1` [Example 1.103, 6-{[(1R)-1-cyclobutylethyl]amino}-8-(5-fluoro-2-methylphenyl)-7-[4-(trifluoromethyl)benzyl]-7H-purine-2-carboxylic acid] gave an IC50 of 10.8 nM.
As for `COc1ccc(-c2nc3nc(C(=O)O)nc(N[C@H](C)C4CCC4)c3n2Cc2ccc(C(F)(F)F)cc2)cc1F` [Example 1.104, 6-{[(1R)-1-cyclobutylethyl]amino}-8-(3-fluoro-4-methoxyphenyl)-7-[4-(trifluoromethyl)benzyl]-7H-purine-2-carboxylic acid], the figure is 17.4 nM.
As for `COc1ccc(-c2nc3nc(C(=O)O)nc(N[C@H](C)C4CCC4)c3n2Cc2ccc(C(F)(F)F)cc2)cc1C` [Example 1.105, 6-{[(1R)-1-cyclobutylethyl]amino}-8-(4-methoxy-3-methylphenyl)-7-[4-(trifluoromethyl)benzyl]-7H-purine-2-carboxylic acid], the figure is 16.5 nM; as for `C[C@@H](Nc1nc(C(=O)O)nc2nc(-c3ccc4nccnc4c3)n(Cc3ccc(C(F)(F)F)cc3)c12)C1CCC1` [Example 1.106, 6-{[(1R)-1-cyclobutylethyl]amino}-8-quinoxalin-6-yl-7-[4-(trifluoromethyl)benzyl]-7H-purine-2-carboxylic acid], 23.5 nM; as for `C[C@@H](Nc1nc(C(=O)O)nc2nc(-c3cccc(-n4cccc4)c3)n(Cc3ccc(C(F)(F)F)cc3)c12)C1CCC1` [Example 1.107, 6-{[(1R)-1-cyclobutylethyl]amino}-8-[3-(1H-pyrrol-1-yl)phenyl]-7-[4-(trifluoromethyl)benzyl]-7H-purine-2-carboxylic acid], 34.8 nM.
As for `C[C@@H](Nc1nc(C(=O)O)nc2nc(-c3ccc4c(ccn4C)c3)n(Cc3ccc(C(F)(F)F)cc3)c12)C1CCC1` [Example 1.108, 6-{[(1R)-1-cyclobutylethyl]amino}-8-(1-methyl-1H-indol-5-yl)-7-[4-(trifluoromethyl)benzyl]-7H-purine-2-carboxylic acid], the figure is 60.9 nM.
`C[C@@H](Nc1nc(C(=O)O)nc2nc(-c3ccc(-c4ccccc4)cc3)n(Cc3ccc(C(F)(F)F)cc3)c12)C1CCC1` [Example 1.109, 8-biphenyl-4-yl-6-{[(1R)-1-cyclobutylethyl]amino}-7-[4-(trifluoromethyl)benzyl]-7H-purine-2-carboxylic acid] came in with an IC50 of 473 nM.
As for `C[C@@H](Nc1nc(C(=O)O)nc2nc(-c3ccc(C4CCCCC4)cc3)n(Cc3ccc(C(F)(F)F)cc3)c12)C1CCC1` [Example 1.110, 6-{[(1R)-1-cyclobutylethyl]amino}-8-(4-cyclohexylphenyl)-7-[4-(trifluoromethyl)benzyl]-7H-purine-2-carboxylic acid], the figure is 3700 nM; as for `Cc1ccc2cc(-c3nc4nc(C(=O)O)nc(N[C@H](C)C5CCC5)c4n3Cc3ccc(C(F)(F)F)cc3)ccc2n1` [Example 1.111, 6-{[(1R)-1-cyclobutylethyl]amino}-8-(2-methylquinolin-6-yl)-7-[4-(trifluoromethyl)benzyl]-7H-purine-2-carboxylic acid], 128 nM; as for `C[C@@H](Nc1nc(C(=O)O)nc2nc(-c3ccc(-c4ccccc4)c(F)c3)n(Cc3ccc(C(F)(F)F)cc3)c12)C1CCC1` [Example 1.112, 6-{[(1R)-1-cyclobutylethyl]amino}-8-(2-fluorobiphenyl-4-yl)-7-[4-(trifluoromethyl)benzyl]-7H-purine-2-carboxylic acid], 344 nM.
The molecule `C[C@@H](Nc1nc(C(=O)O)nc2nc(-c3ccc(N(C)C)cc3)n(Cc3ccc(C(F)(F)F)cc3)c12)C1CCC1` [Example 1.113, 6-{[(1R)-1-cyclobutylethyl]amino}-8-[4-(dimethylamino)phenyl]-7-[4-(trifluoromethyl)benzyl]-7H-purine-2-carboxylic acid] displayed an IC50 of 716 nM.
The molecule `C[C@@H](Nc1nc(C(=O)O)nc2nc(-c3ccc(C(C)(C)C)cc3)n(Cc3ccc(C(F)(F)F)cc3)c12)C1CCC1` [Example 1.114, 8-(4-tert-butylphenyl)-6-{[(1R)-1-cyclobutylethyl]amino}-7-[4-(trifluoromethyl)benzyl]-7H-purine-2-carboxylic acid] gave an IC50 of 393 nM.
To `C[C@@H](Nc1nc(C(=O)O)nc2nc(-c3ccc(Cl)c(C(F)(F)F)c3)n(Cc3ccc(C(F)(F)F)cc3)c12)C1CCC1` [Example 1.115, 8-[4-chloro-3-(trifluoromethyl)phenyl]-6-{[(1R)-1-cyclobutylethyl]amino}-7-[4-(trifluoromethyl)benzyl]-7H-purine-2-carboxylic acid] belongs 17.3 nM; to `C[C@@H](Nc1nc(C(=O)O)nc2nc(-c3ccc(C(=O)C4CC4)cc3)n(Cc3ccc(C(F)(F)F)cc3)c12)C1CCC1` [Example 1.116, 6-{[(1R)-1-cyclobutylethyl]amino}-8-[4-(cyclopropylcarbonyl)phenyl]-7-[4-(trifluoromethyl)benzyl] - 7H-purine-2-carboxylic acid], 66.3 nM.
As to `C[C@@H](Nc1nc(C(=O)O)nc2nc(-c3ccc4occc4c3)n(Cc3ccc(C(F)(F)F)cc3)c12)C1CCC1` [Example 1.117, 8-(1-benzofuran-5-yl)-6-{[(1R)-1-cyclobutylethyl]amino}-7-[4-(trifluoromethyl)benzyl]-7H-purine-2-carboxylic acid], the midpoint of inhibition, the IC50, lay at 16.7 nM.
`Cc1cc(-c2nc3nc(C(=O)O)nc(N[C@H](C)C4CC4)c3n2Cc2ccc(C(F)(F)F)cc2)ccn1` [Example 1.118, 6-{[(1R)-1-cyclopropylethyl]amino} -8-(2-methylpyridin-4-yl)-7-[4-(trifluoromethyl)benzyl]-7H-purine-2-carboxylic acid]: 1370 nM corresponded to half-maximal inhibition (IC50).
Regarding `COc1ccc(C)cc1-c1nc2nc(C(=O)O)nc(N[C@H](C)C3CCC3)c2n1Cc1ccc(C(F)(F)F)cc1` [Example 1.119, 6-{[(1R)-1-cyclobutylethyl]amino}-8-(2-methoxy-5-methylphenyl)-7-[4-(trifluoromethyl)benzyl]-7H-purine-2-carboxylic acid], the IC50 turned out to be 9.97 nM.

Source of the values: patent EP2951180B1, “2,6,7,8 SUBSTITUTED PURINES AS HDM2 INHIBITORS” (Merck Sharp & Dohme Corp., priority 2013, dated 2014).
